ChEMBL document CHEMBL1131959, “Synthesis of glucuronides of multidrug resistance reversing drug MS-209” (Bioorg Med Chem Lett, 1999)
Active and inactive are the calls of the source. The calls are words filed in the database; no cut-off is given here.

How the values were obtained:
Tumor Cell line [1] = assay: Multidrug resistant(MDR) reversing activity in vitro in human tumor cells; Inactive; type: functional, cell-based
Tumor Cell line [2] = assay: Multidrug resistant(MDR) reversing activity in vitro in human tumor cells; Active; type: functional, cell-based

## O=C(O)[C@H]1O[C@@H](O[C@@H](COc2cccc3ncccc23)CN2CCN(C(=O)C(c3ccccc3)c3ccccc3)CC2)[C@H](O)[C@@H](O)[C@@H]1O
Tumor Cell line [1]
  Reversing activity: inactive

## O=C(O)[C@H]1O[C@@H](O[C@H](COc2cccc3ncccc23)CN2CCN(C(=O)C(c3ccccc3)c3ccccc3)CC2)[C@H](O)[C@@H](O)[C@@H]1O
Tumor Cell line [1]
  Reversing activity: inactive

## O=C(C(c1ccccc1)c1ccccc1)N1CCN(C[C@@H](O)COc2cccc3ncccc23)CC1
Tumor Cell line [2]
  Reversing activity: Active
